Common to all, as to format: biochemical
The target of assay [1] is T1, pertussis toxin (Bordetella pertussis, UniProt P04977). The assay can be described thus: Screen of compounds at 1 mM for stimulation of the NADase activity of the toxin (Example Three). To be noted: for Emax at 1000 µM / Fractional Activation: compound 1 mM, relative to 1 mM ATP, toxin preincubated with 20 mM DTT and 2% CHAPS, 3 h at 37° C, average ± half range of two trials; for Emax at 1000 µM: read-out: Fractional Activation. The text has this: The ADP-ribosylating activity of the pertussis toxin can be detected as a nicotinamide-adenine dinucleotide-glycohydrolase (NADase) activity, which can be conveniently assayed through the use of [nicotinamide-^14 C] or [nicotinamide-^3 H] NAD. NAD consists of ADP-ribose linked to nicotinimide, and thus the extent of the release of ADP-ribose from NAD is an indication of the ability of the toxin to cause ill effects. In conducting this assay of the hydrolysis of labelled NAD, ion-exchange column chromatography was employed to resolve the product from the substrate according to the method described by Moss et al., J. Biol. Chem. 258, 11879 (1983) which is incorporated herein by reference. However, several modifications to this method were employed. First, a QAE-Sephadex resin was employed, as was a [nicotinamide-^3 H] NAD. Specifically, a 2 ml QAE-Sephadex column was first washed with 10 ml 1NHCl, followed by 10 ml H2 O, 20 ml 0.5M Tris-HCl pH 7.0, and 40 ml H2 O. [^3 H] NAD was applied, and the column washed with 20 ml water to elute impurities. Purified [^3 H] NAD was eluted with 0.25M NaCl, and stored in small aliquots at -70° C. The purified [^3 H] NAD contributed 50 mM NaCl (final concentration) to the NADase assays.
T1 sequence (P04977 35-269 limits assumed): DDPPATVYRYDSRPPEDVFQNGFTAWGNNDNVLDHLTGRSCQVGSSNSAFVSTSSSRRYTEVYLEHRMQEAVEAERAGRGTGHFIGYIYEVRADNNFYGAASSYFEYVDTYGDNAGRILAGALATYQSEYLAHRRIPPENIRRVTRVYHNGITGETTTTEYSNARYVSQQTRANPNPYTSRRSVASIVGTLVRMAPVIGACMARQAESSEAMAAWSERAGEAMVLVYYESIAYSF
Before the end of the reaction, 2 ml QAE-Sephadex columns were treated with 10 ml 0.1M imidazole-HCl pH 7.0 with 1.0M NaCl, followed by 40 ml water. The NADase reaction (in 100 μl) was terminated by adding 0.85 ml of ice-cold water, and the entire 0.95 ml was pipetted into a treated QAE column. The labelled nicotinamide was then eluted with 3 ml of water directly into a scintillation vial and counted. The absorbed labelled NAD was then eluted into radioactive waste with 10 ml 0.1M imidazole-HCl pH 7.0 with 1.0M NaCl, and the column stored partially immersed in a water bath until the next assay.
(§1) The pertussis toxin in the Examples comprised 50 μg of the toxin in a 500 μl solution of 10 mM sodium phosphate-50 mM sodium chloride-water solution having a pH of 7. The enzymatic activity was detected as the hydrolysis of nicotinamide labelled NAD and ion-exchange column chromatography to resolve the product from the substrate. Unless otherwise noted, the assay was initiated by adding 0.5 to 2.5 μg of the toxin to a reaction mixture for a final volume of 100 μl. The NADase reaction was terminated by adding 0.85 ml of ice-cold water. The entire 0.95 ml was then pipetted into a QAE-Sephadex column (chloride form) and the labelled nicotinamide eluted with 3 ml of water directly into a scintillation vial and counted. […] One unit of NADase activity is defined as 1 pmol NAD hydrolyzed per hour.
The various compounds were screened for the ability to stimulate the NADase activity of the toxin when present in a concentration of 1 mM. Before assay the toxin (1 μg per assay) was incubated at 37° C. for ten minutes with 20 mM DTT and 2 weight percent CHAPS. Assays were for three hours at 37° C., and fractional activation is defined as activity of the compound less the activity in the absence of an activator divided by the activity in the presence of 1 mM ATP less activity in the absence of the activator. The value given is the average plus one-half the range for two separate trials. In each trial, duplicates were measured. […] The results are shown in Table II, wherein P denotes phosphate.

Assay [2] deals with T1, pertussis toxin. The experiment in a line: Activation constants (A0.5) of polyphosphates by NADase assay. To be noted: for EC50 / fraction of the ATP effect: in the presence of a mild detergent. On the procedure:
In the description herein, activation constants for the substances may be expressed by a numerical value (A0.5) by using an NADase assay.
as §1

The target in assay [3] is T1, pertussis toxin. The experiment in a line: Inactivation of NADase activity by iodoacetate after different activator combinations (Example Seven). As to conditions: additions to first incubation only (DTT 1 mM, ATP 1 mM, CHAPS 1%); second incubation none; read-out: Percent NADase activity relative to iced control. How it is done: Pertussis toxin was incubated first at 37° C. for fifteen minutes in […] buffer A (100 mM Tris-HCl, pH 8.0 with 1 mM NaEDTA). EDTA was added to chelate divalent cations, which may promote oxidation of free --SH groups. During this incubation, DTT and ATP were present in concentrations of 1 mM each, and CHAPS was present in a concentration of 1 weight percent. Labelled iodoacetate was then added ([…], 12.5 mM), and the tube incubated on ice for twenty hours. The sample was then mixed with sodium dodecylsulfate and β-mercaptoethanol, heated at 95° C. for one minute, and electrophoresed. After electrophoresis, the gel was fixed, treated with Fluorohance (Research Products International), dried and used to expose x-ray film.
(§2) Pertussis toxin was incubated at 37° C. for fifteen minutes as described in Example Six, and then a second incubation was begun by adding 10 μl buffer A with or without 12.5 mM iodoacetate, mixing the contents of the tube and lowering the temperature to 30° C. After fifteen minutes, the tubes were shifted to an ice bath for ten minutes. A third incubation was then begun by adding 10 μl buffer A containing 200 mM DTT to those tubes containing iodoacetate to scavenge the iodoacetate. To those tubes not containing iodoacetate during the second incubation, a mixture of 200 mM DTT and 12.5 mM iodoacetate in buffer A, previously incubated for an hour on ice, was added. The third incubation was continued for one hour on ice.
(§3) The contents of each tube were then assayed for NADase activity by adding 40 μl of a reaction mix consisting of buffer A containing carbon-14 labelled NAD (final concentration in the 100 μl final volume was 25 μM), and 50 mM sodium chloride. Different reaction mixtures with various additions were used, so that in all tubes the final concentration of ATP was 1 mM and CHAPS was 1 weight percent. The assay was conducted at 37° C. for sixty minutes, and the released labelled nicotinimide was isolated and counted. The iced controls were formed by incubating pertussis toxin (1 μg) on ice in 10 mM sodium phosphate (pH 7) and 50 mM sodium chloride during the first three incubations. […] The first three incubations were done under a nitrogen atmosphere using degassed conditions, and the second and third incubations were done under subdued light.

Assay [4] deals with T1, pertussis toxin. The assay can be described thus: Inactivation of NADase activity by sulfhydryl reagents, 6 minutes or 18 hours at 0-4° (Example Eight). As to conditions: first incubation: ATP, DTT, CHAPS. On the procedure:
as §2, §3
The procedure followed in Example Seven was repeated for this study, except that N-ethylmaleimide, chloroacetamide or chloroacetate were substituted for iodoacetate. After the 30° C. incubation, the tubes were either incubated for six minutes or eighteen hours at 0°-4° C. before the 10 μl of 200 mM DTT (with or without quenched reagent) was added. Those tubes receiving the DTT after six minutes were incubated for nineteen hours at 0°-4° C. prior to the NADase assay. Those receiving the DTT after eighteen hours were incubated with DTT for one hour, as in Example Seven. The tubes were then assayed for NADase activity at the same time.

Where [5] appears, read: FIGS. 1A and 1B, read-out: activation constants (A0.5).

The source of these data is patent publication US5032398A, “Selective modification of the catalytic subunit of pertussis toxin” (priority 1986, dated 1991).

“And” between values parts separate entries of the source, which are not always exact repeats. Identical values can stand only once. Like-named read-outs stand apart in the source and are kept apart here. Bounds are passed on as bounds.

In the case of `O=P(O)(O)OC(CO)CO` [2-glycerol-P], the Emax at 1000 µM in assay [1] was -1 ± 3%.
On to `Nc1ncnc2c1ncn2[C@@H]1O[C@H](COP(=O)(O)OP(=O)(O)O)[C@@H](O)[C@H]1O` [ADP], for which the EC50 in assay [2] (setting [5]) turned out to be 6 µM. For the same compound, in assay [1], the “Stimulation (activation) of pertussis toxin, in words” value (“Stimulation (activation)” below) is reported as “effective” and the Emax at 1000 µM amounted to 107 ± 6%.
On to `Nc1ncnc2c1ncn2[C@@H]1O[C@H](COP(=O)(O)O)[C@@H](O)[C@H]1O` [AMP], for which, in assay [1], the Emax at 1000 µM came out at 26 ± 9%.
With `Nc1ncnc2c1ncn2[C@@H]1O[C@H](COP(=O)(O)OP(=O)(O)OP(=O)(O)O)[C@@H](O)[C@H]1O` [ATP], the EC50 in assay [2] (setting [5]) is 0.2 µM; in assay [2] (read-out: activation constant), around 0.2 µM. The remaining activity at 1000 µM in assay [3] was 13%. Besides, the “Stimulation (activation)” value in assay [1] is “effective”. Also, the “NADase activity in the presence of 1 mM ATP” value in assay [1] (two trials, without ATP 44 and 18) was 111 units per microgram toxin and 97 units per microgram toxin.
For the compound `Nc1ccn([C@@H]2O[C@H](COP(=O)(O)OP(=O)(O)OP(=O)(O)O)[C@@H](O)[C@H]2O)c(=O)n1` [CTP], in assay [1], the Emax at 1000 µM turned out to be 103 ± 9%.
With `Nc1nc2c(ncn2[C@@H]2O[C@H](COP(=O)(O)OP(=O)(O)OP(=O)(O)O)[C@@H](O)[C@H]2O)c(=O)[nH]1` [GTP], the EC50 in assay [2] (setting [5]) turned out to be 35 µM. Moreover, the Emax at 1000 µM in assay [1] amounted to 87 ± 1%.
For the compound `O=c1[nH]cnc2c1ncn2[C@@H]1O[C@H](COP(=O)(O)OP(=O)(O)OP(=O)(O)O)[C@@H](O)[C@H]1O` [ITP], the Emax at 1000 µM in assay [1] amounted to 85 ± 1%.
In the case of `O=P(O)(O)O` [P, phosphate], in assay [1], the “Stimulation (activation)” value is “ineffective” and the “Fractional Activation” value was 0.01 ± .01.
For `O=c1ccn([C@@H]2O[C@H](COP(=O)(O)OP(=O)(O)OP(=O)(O)O)[C@@H](O)[C@H]2O)c(=O)[nH]1` [UTP], the EC50 in assay [2] (setting [5]) is 15 µM. For the same compound, the Emax at 1000 µM in assay [1] is 92 ± 3%.
As to `Nc1ncnc2c1ncn2[C@@H]1O[C@H](CO)[C@@H](O)[C@H]1O` [adenosine], the “Effect on the dose-response relationship of ATP or pyrophosphate” value in assay [2] (adenosine 1 mM) was “failed to significantly alter”. Also, in assay [1], the “Stimulation (activation)” value is reported as “ineffective” and the Emax at 1000 µM was 2 ± 2%.
`NC(=O)CCl` [chloroacetamide]: in assay [4] (6 minutes at 0-4°), the NADase activity amounted to 76 pmol per μg per hour and the “percent of activity with no addition to second incubation” value was determined as 79%. Moreover, in assay [4] (18 hours at 0-4°), the NADase activity turned out to be 35 pmol per μg per hour and the “percent of activity with no addition to second incubation” value came out at 36%.
The corresponding values for `O=C(O)CCl` [chloroacetate] are 86 pmol per μg per hour, 91%, 85 pmol per μg per hour and 87%.
For the compound `O=P(O)(O)OC[C@H]1OC(O)[C@H](O)[C@@H](O)[C@@H]1O` (stereo partly shown) [glucose-6-P, glucose 6-phosphate], in assay [1], the “Stimulation (activation)” value is reported as “ineffective” and the Emax at 1000 µM is -3 ± 2%.
`Cc1ncc(COP(=O)(O)O)c(C=O)c1O` [pyridoxal-P]: the Emax at 1000 µM in assay [1] is 53 ± 6%.
For the compound `O=P(O)(O)OP(=O)(O)O` [pyro-P, pyrophosphate], the “fraction of the ATP effect” value in assay [2] (FIGS. 1A and 1B) was 0.7. Besides, in assay [1], the “Stimulation (activation)” value was “effective” and the “Fractional Activation” value is recorded as 0.85 ± .11.
Turning to `NC(COP(=O)(O)O)C(=O)O` (stereo not shown) [serine-P], the Emax at 1000 µM in assay [1] was -4 ± 2%.
In the case of `O=P(O)(O)OP(=O)(O)OP(=O)(O)OP(=O)(O)O` [tetrapoly-P, tetrapolyphosphate], the “fraction of the ATP effect” value in assay [2] (FIGS. 1A and 1B) is given as 0.4. The EC50 in assay [2] (setting [5]) was at least 170 µM. For the same compound, the “Fractional Activation” value in assay [1] is reported as 0.92 ± .12.
For `CC(OP(=O)(O)O)C(N)C(=O)O` (stereo not shown) [threonine-P], the Emax at 1000 µM in assay [1] worked out at 1 ± 1%.
On to `O=P1([O-])OP(=O)([O-])OP(=O)([O-])O1.[Na+].[Na+].[Na+]` [trimeta-P, trimetaphosphate], for which the “fraction of the ATP effect” value in assay [2] (FIGS. 1A and 1B) amounted to 0.3. The EC50 in assay [2] (setting [5]) was at least 260 µM. The “Fractional Activation” value in assay [1] is 0.69 ± .22.
Consider `O=P(O)(O)OP(=O)(O)OP(=O)(O)O` [tripoly-P, tripolyphosphate], for which the “fraction of the ATP effect” value in assay [2] (FIGS. 1A and 1B) is on record as 0.6. Besides, the “Fractional Activation” value in assay [1] is recorded as 0.98 ± .14.
As to `NC(Cc1ccc(OP(=O)(O)O)cc1)C(=O)O` (stereo not shown) [tyrosine-P], the Emax at 1000 µM in assay [1] was determined as 2 ± 2%.
